Patent publication US7235588B2, “Method for reducing hypertension and heart failure” (The Research Foundation of State University of New York, priority 2001, dated 2007)
Entries after “also recorded” stand apart in the source; their conditions may differ.

What was measured:
[1] = test system: hearts subjected to ischemia/reperfusion; details: cited from earlier work
[2] = test system: male C57/BL6 mice; experiment: Transverse aortic constriction (TAC) induced left ventricular hypertrophy in mice; assay type: in vivo
Procedure: Pressure overload was produced by transverse aortic constriction (TAC) to induce left ventricular hypertrophy (FIG. 1). Briefly, male C57/BL6 mice, weighing 20 to 24 grams, were anesthetized by intra-peritoneal injection of a cocktail of ketamine (100 mg/kg) and xylazine ([…]). The mice were shaved, restrained, and orally intubated (under direct vision via a vertical cervical incision) using a 22 guage blunt feeding needle. Respiration was artificially controlled (tidal volume of 0.1 to 0.3 ml) at a respiratory rate of 110 to 150 breaths/minute using a ventilator (Harvard Apparatus Rodent Ventilator, model 683). A median sternotomy was performed and the sternum retracted. The thymus was retracted anteriorly and the aortic arch identified and ligated (using 8.0 nylon suture; Ethicon) between the innominate and left common carotid artery with an overlying 27-guage needle; and then the needle removed to leave a discrete region of stenosis. The chest was then closed in two layers (using 6.0 vicryl suture, Ethicon) and the pneumothorax evacuated. Some mice were subjected to a sham operation in which the aortic arch was visualized but not banded. The mice were then extubated and monitored post-op for 3 to 12 hours. The survival rate at the end of the learning period is greater than 90%.
Nine days post-op, the hearts were removed from heparinized (500 U) mice and euthanized with a lethal dose of pentobarbital (150 mg/kg). The hearts were analyzed by visual inspection of a cross-section of the heart (FIG. 2A), determination of heart to body weight ratio (FIG. 2B), and light microscopy of the cardiomyocytes in the left ventricular (FIG. 2C), and activation of artiel natuiretic factor (ANF), a specific molecular marker for hypertrophy (FIG. 3). Based on these determinations, all trans-aortic constricted mice developed well-defined left ventricular hypertrophy.
To determine whether tyrphostin AG490 could reverse the hypertrophy induced by traverse aortic constriction, tyrphostin AG490 (5 μM) was administered to the mice, intra-peritoneal, 24 hours before being subjected to transverse aortic constriction and every 24 hours thereafter for the duration of the study (9 days).

[3] = test system: cardiomyocytes; experiment: Cardiomyocyte apoptosis by TUNEL after ischemia/reperfusion; design: species or system rat; details: FIG. 4C
Procedure: Immunohistochemical detection of apoptotic cells was carried out by use of terminal dUTP nick end-labeling (TUNEL), in which residues of digoxigenin-labeled dUTP are catalytically incorporated into the DNA by terminal deoxynucleotidyl transferase II. The cells were incubated with a sheep polyclonal anti-digoxigenin antibody followed by a FITC-conjugated rabbit anti-sheep IgG as a secondary antibody. The heart sections were washed in PBS 3 times, blocked with normal rabbit serum, and incubated with mouse monoclonal antibody recognizing cardiac myosin heavy chain (Biogenesis Ltd) followed by staining with TRIRC-conjugated rabbit anti-mouse IgG ([…] dilution, Dalco, Japan). The fluorescence staining was viewed with a confocal laser microscope (Olympus Co). The apoptoic cells were counted and expressed as percentage of total myocyte population. Ischemia was induced by a modified Langendorf-reperfusion method in rat hearts. Hearts from adult male rats were randomly divided into 4 groups and subjected to ischemia/reperfusion. In the ischemic group, hearts were perfused with Krebs-Henseleit buffer for 60 minutes, followed by 30 minutes of global ischemia. In the ischemic/reperfused group, hearts were perfused for 60 minutes, followed by 30 minutes of global ischemia and 120 minutes of reperfusion. Control group hearts were perfused for the same lengths of time.

[4] = test system: rat hearts; experiment: Myocardial function of spontaneously beating working hearts subjected to ischemia/reperfusion
[5] = test system: angiotensinogen mRNA; experiment: Angiotensinogen mRNA in hearts subjected to ischemia/reperfusion (primer extension assay); design: species or system rat; details: 30 min ischemia and 120 min reperfusion
Procedure: Ischemia was induced by a modified Langendorf-reperfusion method in rat hearts. Hearts from adult male rats were randomly divided into 4 groups and subjected to ischemia/reperfusion. In the ischemic group, hearts were perfused with Krebs-Henseleit buffer for 60 minutes, followed by 30 minutes of global ischemia. In the ischemic/reperfused group, hearts were perfused for 60 minutes, followed by 30 minutes of global ischemia and 120 minutes of reperfusion. Control group hearts were perfused for the same lengths of time.
Rat hearts subjected to ischemia/reperfusion were tested to determine whether activation of the renin-angiotensin system, as reflected by an increase in angiotensinogen mRNA, occurs in ischemic injury. The level of angiotensinogen mRNA was analyzed by primer extension assay using gene-specific DNA probes. A DNA primer spanning the complementary sequence of the rat angiotensinogen cDNA between nucleotides 302 and 279 (5′-[…]-3′) SEQ ID NO: 1 was end-labeled and used to evaluate the expression of angiotensinogen mRNA in total RNA isolated from the rat heart. The primer extension protocol was performed according to instructions provided by the supplier (Progema). Rat GAPDH cDNA specific primer was used as control. There was a marked increase in mRNA level after 30 minutes of ischemia and 120 minutes of reperfusion (FIG. 5A). […]

[6] = test system: angiotensinogen mRNA; experiment: Angiotensinogen mRNA expression in vivo in rat liver (northern blot); details: daily treatment to achieve 5 μM systemically, 10 days
Procedure: Tyrphostin AG490 was administered to rats in vivo. A subcutaneous pump was surgically placed with a catheter extended intraperitoneally. Rats were daily treated with tyrphostin AG490 to achieve a 5 μM concentration systemically. After 10 days, the animals were euthanized using approved animal protocols and the liver collected to isolate RNA. The isolated RNA was used to perform a northern blot and the nitrocellulose membrane was probed with the rat angiotensinogen cDNA. Loading control was performed using GAPDH as probe.

[7] = first 60 min of reperfusion, treated groups (5 and 50 μmol/L)

For `N#C/C(=C\c1ccc(O)c(O)c1)C(=O)NCc1ccccc1` [tyrphostin AG490], the “cardioprotection / myocardial damage due to ischemia” value [1] is given as “afford cardioprotection”, the “reversal of hypertrophy induced by transverse aortic constriction” value ([2]; 5 μM intra-peritoneal, 24 h before TAC and every 24 h for 9 days) is given as “remarkable reversal of hypertrophy” and the “LVH by visual inspection of cross section of the heart” value ([2]; FIG. 2A, TAC mice) is given as “decrease in LVH”. For the same compound, the “ratio of heart weight to body weight” value ([2]; FIG. 2B, TAC mice) was “decrease in ratio of heart weight to body weight”, the “hypertrophy of cardiomyocytes of left ventricle by light microscopy” value ([2]; FIG. 2C, TAC mice) was “decrease in hypertrophy” and the “ANF (atrial natriuretic factor, marker for hypertrophy)” value ([2]; FIG. 3, during cardiac hypertrophy) was “ANF inhibition”. For the same compound, the “apoptotic cell death of cardiomyocytes” value [3] was “marked lowering of apoptotic cell death; also recorded: reduction of apoptosis of cardiomyocytes”, the “cardioprotection (developed pressure and dP/dt)” value ([4]; 5 μmol/L) was “able to provide cardioprotection to approximately the same degree” and the Developed pressure ([4]; 5 μmol/L, 60 min of reperfusion (R-60)) was 86±2.5 mm Hg. It also gave a Developed pressure ([4]; 5 μmol/L, 90 min of reperfusion (R-90)) of 69±5 mm HG, a Developed pressure ([4]; 5 μmol/L, 120 min of reperfusion (R-120)) of 60.85±4 mm Hg and a dp/dt ([4]; 5 μmol/L, R-30) of 3818±49.46. For the same compound, the dp/dt ([4]; 5 μmol/L, R-60) was 3362±53.14, the dp/dt ([4]; 5 μmol/L, R-90) was 2840±88 and the dp/dt ([4]; 5 μmol/L, R-120) was 2552±58.9. For the same compound, the “baseline value for dP/dt” value ([4]; 50 μmol/L) was “increased slightly”, the “cardioprotection (developed pressure and dP/dt)” value ([4]; 50 μmol/L) was “able to provide cardioprotection to approximately the same degree” and the Developed pressure ([4]; 50 μmol/L, 60 min of reperfusion (R-60)) was 86±4.8 mm Hg. For the same compound, the Developed pressure ([4]; 50 μmol/L, 90 min of reperfusion (R-90)) was 72.7±5.7 mm HG, the Developed pressure ([4]; 50 μmol/L, 120 min of reperfusion (R-120)) was 53.75±7 mm Hg and the dp/dt ([4]; 50 μmol/L, R-30) was 4156±238. For the same compound, the dp/dt ([4]; 50 μmol/L, R-60) was 3840±140, the dp/dt ([4]; 50 μmol/L, R-90) was 3194.7±228 and the dp/dt ([4]; 50 μmol/L, R-120) was 2626±269. For the same compound, the “dP/dt and developed pressure versus untreated group” value ([4]; all treated groups (5 and 50 μmol/L)) was “significantly higher”, the Developed pressure [4, 7] was “minimally lowered” and the dP/dt value [4, 7] was “not lowered”. The “angiotensinogen mRNA level” value [5] was “inhibited the stimulation of the angiotensinogen mRNA level; also recorded: inhibition of angiotensinogen mRNA” and the “expression of angiotensinogen gene product mRNA” value [6] was “abolished the expression of angiotensinogen gene product mRNA; also recorded: attenuation of angiotensinogen mRNA expression”.
